Test results published in patent publication US10287305B2, “Substituted piperidine compound and use thereof” (Takeda Pharmaceutical Company Limited, priority 2016, dated 2019).

Legend:
human OX2 receptor = human OX2 receptor (Homo sapiens (Human), UniProt O43614); assay: Measurement of orexin type 2 receptor agonist activity (Experimental Example 2-2, FDSS uCELL, calcium indicator); type: cell-based; details: CHO cells expressing human OX2 receptor; for EC50: Fluo-4 AM
Procedure: CHO cells forcibly expressing human OX2 receptor were seeded in each well of 384 well black transparent bottom plate (BD Falcon) at 7,500 cells/well, and cultured for one day in a 5% CO2 incubator at 37° C. […] The plate was stood for 30 min in a 5% CO2 incubator at 37° C., and further stood at room temperature for 30 min. A test compound prepared by diluting with assay buffer B (HESS, 20 mM HEPES, 0.1% BSA) was added at 10 μL/well, and the fluorescence value was measured by FDSSμCELL (Hamamatsu Photonics K.K.) every one sec for 1 min, and thereafter every two sec for 1 min sec.

[1] = molecular target: human orexin type 2 receptor (hOX2R) (Homo sapiens (Human), UniProt O43614); assay: Measurement of orexin type 2 receptor agonist activity (Experimental Example 2-1, FLIPR TETRA, intracellular Ca2+); type: cell-based; details: CHO dhfr- cells expressing hOX2R; for Emax at 30 µM: value at 30 uM concentration, orexin B as full agonist = 100%; for Emax: read-out: Emax (%)
human orexin type 2 receptor (hOX2R), sequence (O43614 whole entry): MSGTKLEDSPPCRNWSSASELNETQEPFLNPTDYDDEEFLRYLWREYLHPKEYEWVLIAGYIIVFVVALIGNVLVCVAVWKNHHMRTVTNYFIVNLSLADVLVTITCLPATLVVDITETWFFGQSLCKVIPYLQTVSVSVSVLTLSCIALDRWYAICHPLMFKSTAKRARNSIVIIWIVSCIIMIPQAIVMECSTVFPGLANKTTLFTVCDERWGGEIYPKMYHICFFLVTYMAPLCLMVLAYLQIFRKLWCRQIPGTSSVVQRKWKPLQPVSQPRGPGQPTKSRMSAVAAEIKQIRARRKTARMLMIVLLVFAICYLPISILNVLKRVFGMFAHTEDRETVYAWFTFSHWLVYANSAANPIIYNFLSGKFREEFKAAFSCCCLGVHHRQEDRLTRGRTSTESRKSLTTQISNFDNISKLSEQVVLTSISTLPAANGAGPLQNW

C57BL/6J mice = assay: Measurement of locomotor activity in mice (Experimental Example 3); type: in vivo, mouse; details: male C57BL/6J mice; 30 mg/kg intraperitoneal; measured for 2 hr after administration
Procedure: Increased locomotor activity is one of the indexes of arousal action together with increase in wakefulness time, increase in body temperature, enhancement of cardiovascular system parameters and the like. In this Experimental Example, the arousal action effective for the treatment of narcolepsy was evaluated by measuring the locomotor activity of mouse. Male C57BL/6J mice (6-10 weeks old, Japan CLEA) were used for the measurement of locomotor activity (8 mice each group), infrared rays were irradiated from the top part of the cage, and a locomotor activity measuring device (MDC system—Neurosciences Idea) capable of quantifying the number of times the mice pass through the irradiated rays was used. To be specific, the mice were placed in the cage of the device and acclimatized for 4 hours or longer, and a test compound was intraperitoneally administered (dose: 30 mg/kg body weight). The locomotor activity was measured for 2 hr after the administration. In the test compound group, a solution obtained by dissolving the test compound in a solvent (composition: 10% DMSO, 10% Cremophor EL (trade name), 20% polyethylene glycol 400 (20% PEG400, 60% H2O)) was administered to mice. On the other hand, in the control group, only the aforementioned solvent not containing the test compound was administered to mice.

[2] = CHO, DMSO = 0%, reference OX-A at 10 nM
[3] = agonist activity, 10 nM human orexin B = 100%
[4] = DMSO = 0%, reference OX-A at 10 nM

human OX2 receptor, sequence (O43614 whole entry): as above

| SMILES | EC50 (human OX2 receptor) [µM] | Emax (human OX2 receptor; [2]) [%] | other results |
| --- | --- | --- | --- |
| COC(=O)N1CCC[C@H](NS(C)(=O)=O)[C@@H]1CO[C@H]1CC[C@@H](c2ccc(O)cc2)CC1 (relative stereo) [Example 345, methyl cis-2-(((cis-4-(4-hydroxyphenyl)cyclohexyl)oxy)-methyl)-3-((methylsulfonyl)amino)piperidine-1-carboxylate] | 0.021 | 105 | – |
| COC(=O)N1CCC[C@H](NS(C)(=O)=O)[C@@H]1CO[C@H]1CC[C@@H](c2ccc(OC)cc2)CC1 (relative stereo) [Example 344, methyl cis-2-(((cis-4-(4-methoxyphenyl)cyclohexyl)oxy)-methyl)-3-((methylsulfonyl)amino)piperidine-1-carboxylate] | 0.29 | 109 | – |
| CCNC(=O)N1CCC[C@H](NS(C)(=O)=O)[C@@H]1CO[C@H]1CCC[C@@H]1Oc1ccccc1 [Example 350, cis-N-ethyl-3-((methylsulfonyl)amino)-2-((((1S,2S)-2-phenoxycyclopentyl)oxy)methyl)-piperidine-1-carboxamide] | 1.6 | 116 | – |
| CC(C)OC(=O)N1CCC[C@H](NS(=O)(=O)C2CC2)[C@@H]1COC1CCN(c2ncccn2)CC1 (relative stereo) [Example 356, isopropyl cis-3-((cyclopropylsulfonyl)amino)-2-(((1-(pyrimidin-2-yl)piperidin-4-yl)oxy)methyl)piperidine-1-carboxylate] | 0.021 | 98 | – |
| COC(=O)N1CCC[C@H](NS(C)(=O)=O)[C@@H]1CO[C@H]1CC[C@@H](c2ccccc2)CC1 [Example 5, Methyl (2R,3S)-3-((methylsulfonyl)amino)-2-(((cis-4-phenylcyclohexyl)oxy)methyl)piperidine-1-carboxylate] | – | – | EC50 [1, 3]: 0.0022 µM; Emax at 30 µM [1]: 98%; locomotor activity (counts) (mean ± S.E.M., n = 8) (C57BL/6J mice): 1175.25 counts |
| CS(=O)(=O)N[C@H]1CCCN(C(=O)CO)[C@H]1CO[C@H]1CC[C@@H](c2c(F)ccc(F)c2F)CC1 [Example 340, N-((2R,3S)-1-glycoloyl-2-(((cis-4-(2,3,6-trifluorophenyl)cyclohexyl)oxy)methyl)piperidin-3-yl)methanesulfonamide] | – | – | EC50 ([1]; FLIPR TETRA, Fluo-4AM): 0.0025 µM; Emax ([1]; FLIPR TETRA, Fluo-4AM): 109%; locomotor activity (counts) (mean ± S.E.M., n = 8) (C57BL/6J mice): 979.25 ± 109.96 counts |
| CC(OC(=O)N1CCC[C@H](NS(=O)(=O)C2CC2)[C@@H]1COC1CCN(c2ncccn2)CC1)C(F)(F)F (relative stereo) [Example 362, 1,1,1-trifluoropropan-2-yl cis-3-((cyclopropylsulfonyl)amino)-2-(((1-(pyrimidin-2-yl)piperidin-4-yl)oxy)methyl)piperidine-1-carboxylate] | 0.39 | 95 | – |
| COC(=O)N1CCC[C@H](NS(C)(=O)=O)[C@@H]1CO[C@H]1CC[C@@H](c2ccccc2O)CC1 (relative stereo) [Example 347, methyl cis-2-(((cis-4-(2-hydroxyphenyl)cyclohexyl)oxy)-methyl)-3-((methylsulfonyl)amino)piperidine-1-carboxylate] | 0.26 | 94 | – |
| CCNC(=O)N1CCC[C@H](NS(=O)(=O)C2CC2)[C@@H]1CO[C@H]1CC[C@@H](c2ccccc2)CC1 (relative stereo) [Example 355, cis-3-((cyclopropylsulfonyl)amino)-N-ethyl-2-(((cis-4-phenylcyclohexyl)oxy)methyl)-piperidine-1-carboxamide] | 0.00044 | 108 | – |
| O=C(OCC(F)(F)F)N1CCC[C@H](NS(=O)(=O)C2CC2)[C@@H]1COC1CCN(c2ncccn2)CC1 (relative stereo) [Example 360, 2,2,2-trifluoroethyl cis-3-((cyclopropylsulfonyl)amino)-2-(((1-(pyrimidin-2-yl)piperidin-4-yl)oxy)methyl)piperidine-1-carboxylate] | 0.21 | 98 | – |
| COC(=O)N1CCC[C@H](NS(C)(=O)=O)[C@@H]1CO[C@H]1CC[C@@H](c2ccc(O)cc2)CC1 [Example 348, methyl (2R,3S)-2-(((cis-4-(4-hydroxyphenyl)cyclohexyl)oxy)-methyl)-3-((methylsulfonyl)amino)piperidine-1-carboxylate] | 0.0095 | – | Emax (%) (human OX2 receptor; [4]): 92% |
| CNC(=O)N1CCC[C@H](NS(=O)(=O)C2CC2)[C@@H]1CO[C@H]1CC[C@@H](c2ccccc2)CC1 (relative stereo) [Example 359, cis-3-((cyclopropylsulfonyl)amino)-N-methyl-2-(((cis-4-phenylcyclohexyl)oxy)methyl)-piperidine-1-carboxamide] | 0.0011 | 97 | – |
| CC(=O)N1CCC[C@H](NS(=O)(=O)C2CC2)[C@@H]1CO[C@H]1CC[C@@H](C(C)C)CC1 (relative stereo) [Example 357, N-(cis-1-acetyl-2-(((cis-4-isopropylcyclohexyl)oxy)methyl)-piperidin-3-yl)cyclopropanesulfonamide] | 0.084 | 101 | – |
| O=S(=O)(N[C@H]1CCCN[C@H]1CO[C@H]1CC[C@@H](c2ccccc2)CC1)C1CC1 (relative stereo) [Example 353, N-(cis-2-(((cis-4-phenylcyclohexyl)oxy)methyl)-piperidin-3-yl)cyclopropanesulfonamide] | 1.3 | 100 | – |
| CCNC(=O)N1CCC[C@H](NS(C)(=O)=O)[C@@H]1CO[C@H]1CC[C@@H](C(C)C)CC1 [Example 2, (2R,3S)—N-ethyl-2-(((cis-4-isopropylcyclohexyl)oxy)methyl)-3-((methylsulfonyl)amino)piperidine-1-carboxamide] | – | – | EC50 [1, 3]: 0.0019 µM; Emax at 30 µM [1]: 99%; locomotor activity (counts) (mean ± S.E.M., n = 8) (C57BL/6J mice): 817.00 counts |
| COC(=O)N1CCC[C@H](NS(C)(=O)=O)[C@@H]1CO[C@H]1CC[C@@H](c2cccc(O)c2)CC1 (relative stereo) [Example 343, methyl cis-2-(((cis-4-(3-hydroxyphenyl)cyclohexyl)oxy)-methyl)-3-((methylsulfonyl)amino)piperidine-1-carboxylate] | 0.15 | – | Emax (human OX2 receptor; [4]): 109% |
| CC(=O)N1CCC[C@H](NS(=O)(=O)C2CC2)[C@@H]1CO[C@H]1CC[C@@H](c2ccccc2)CC1 (relative stereo) [Example 354, N-(cis-1-acetyl-2-(((cis-4-phenylcyclohexyl)oxy)methyl)-piperidin-3-yl)cyclopropanesulfonamide] | 0.051 | 104 | – |
| CS(=O)(=O)N[C@H]1CCCN(C(=O)C2CC2)[C@H]1COC1CCN(c2cc(F)ccc2Cl)CC1 (relative stereo) [Example 212, N-(cis-2-(((1-(2-chloro-5-fluorophenyl)piperidin-4-yl)oxy)methyl)-1-(cyclopropylcarbonyl)piperidin-3-yl)methanesulfonamide] | – | – | EC50 ([1]; FLIPR TETRA, Fluo-4AM): 2.2 µM; Emax ([1]; FLIPR TETRA, Fluo-4AM): 89% |
| COC(=O)N1CCC[C@H](NS(C)(=O)=O)[C@@H]1COC1CCN(c2ccccc2C(F)(F)F)CC1 (relative stereo) [Example 165, methyl cis-3-((methylsulfonyl)amino)-2-(((1-(2-(trifluoromethyl)phenyl)piperidin-4-yl)oxy)methyl)piperidine-1-carboxylate] | – | – | EC50 ([1]; FLIPR TETRA, Fluo-4AM): 3.8 µM; Emax ([1]; FLIPR TETRA, Fluo-4AM): 80% |
| COC(=O)N1CCC[C@H](NS(C)(=O)=O)[C@@H]1CO[C@H]1CC[C@@H](c2ccccc2C#N)CC1 (relative stereo) [Example 265, methyl cis-2-(((cis-4-(2-cyanophenyl)cyclohexyl)oxy)methyl)-3-((methylsulfonyl)amino)piperidine-1-carboxylate] | – | – | EC50 ([1]; FLIPR TETRA, Fluo-4AM): 2.3 µM; Emax ([1]; FLIPR TETRA, Fluo-4AM): 94% |
| CC(=O)C(=O)N1CCC[C@H](NS(C)(=O)=O)[C@@H]1CO[C@H]1CC[C@@H](c2ccccc2)CC1 (relative stereo) [Example 177, N-(cis-2-(((cis-4-phenylcyclohexyl)oxy)methyl)-1-pyruvoylpiperidin-3-yl)methanesulfonamide] | – | – | EC50 ([1]; FLIPR TETRA, Fluo-4AM): 0.19 µM; Emax ([1]; FLIPR TETRA, Fluo-4AM): 96% |
| CC(=O)N1CCC[C@H](NS(C)(=O)=O)[C@@H]1COC1CCC(c2ccccc2)C1 (relative stereo) [Example 337, N-(cis-1-acetyl-2-(((3-phenylcyclopentyl)oxy)methyl)-piperidin-3-yl)methanesulfonamide] | – | – | EC50 ([1]; FLIPR TETRA, Fluo-4AM): 2.4 µM; Emax ([1]; FLIPR TETRA, Fluo-4AM): 88% |
